Publication PMC5796218 (International Journal of Molecular Sciences, 2018)
Structures can show the parent of a compound that is named as a salt. Where two headings read alike, the source gives them in different places.

What was measured:
[1] = target: MuOPR 132–143 peptide (mu opioid receptor) (Homo sapiens, UniProt P35372); assay: biochemical
[2] = target: MuOPR 211–226 peptide (mu opioid receptor) (Homo sapiens, UniProt P35372); assay: biochemical
[3] = target: MuOPR 121–131 peptide (mu opioid receptor) (Homo sapiens, UniProt P35372); assay: biochemical
[4] = target: MuOPR 38–51 peptide (mu opioid receptor) (Homo sapiens, UniProt P35372); assay: biochemical
[5] = target: MuOPR 111–122 peptide (mu opioid receptor) (Homo sapiens, UniProt P35372); assay: biochemical
muOPR peptides = muOPR peptides (Homo sapiens, UniProt P35372); format: binding
Sequence of muOPR peptides (P35372 with tags, fused parts or gaps): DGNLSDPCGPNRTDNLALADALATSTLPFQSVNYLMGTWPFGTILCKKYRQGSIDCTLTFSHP
Experimental: (§1) Each of these receptor peptides were made into individual stock solutions with a concentration of 1 mg/mL in pH 7.40 phosphate buffered saline solution (Fischer Scientific, Hampton, NH, USA). For each individual test, the stock solution was diluted to 0.1 or 0.2 mg/mL solution. […] The adrenergic or compounds were made up at 1.0 mM solutions and then serially diluted by thirds eleven times using phosphate buffer.
(§2) After the solutions were made, a 96-well quartz crystal plate was prepared to be run through the spectrophotometer at room temperature (approximately 24 °C). […] The absorbance of each receptor peptide without the presence of the adrenergic compound was measured as well. The absorbance of each well was measured at every 10-nm increment from 190–260 nm. The maximum absorbance that can be measured was set to be 4. Each well had 200 μL of solution, so if the absorbance of one component was being measured, it was diluted by half with phosphate buffer.
(§3) If the measured absorbance is different than the additive absorbance of each compound, then that indicates some sort of molecular interaction. The binding can be quantified by graphing the difference in absorbance against the concentration of the compound varied to provide a binding curve. The absorbance for the phosphate buffer is subtracted for each well before any calculations are done. The data are analyzed by finding the additive absorbance, and plotting the difference between this absorbance and the actual absorbance against the concentration of the adrenergic compound. […] The binding constants were estimated from the half-saturation point at 200 nm since the absorbance differences tended to be maximized at this wavelength.

[6] = target: intact, purified human mu opioid receptor (muOPR) (Homo sapiens, UniProt P35372); assay: biochemical; settings: for binding to intact muOPR (in words): UV spectra, serial additions in Tris buffer
Sequence of intact, purified human mu opioid receptor (muOPR) (P35372 whole entry): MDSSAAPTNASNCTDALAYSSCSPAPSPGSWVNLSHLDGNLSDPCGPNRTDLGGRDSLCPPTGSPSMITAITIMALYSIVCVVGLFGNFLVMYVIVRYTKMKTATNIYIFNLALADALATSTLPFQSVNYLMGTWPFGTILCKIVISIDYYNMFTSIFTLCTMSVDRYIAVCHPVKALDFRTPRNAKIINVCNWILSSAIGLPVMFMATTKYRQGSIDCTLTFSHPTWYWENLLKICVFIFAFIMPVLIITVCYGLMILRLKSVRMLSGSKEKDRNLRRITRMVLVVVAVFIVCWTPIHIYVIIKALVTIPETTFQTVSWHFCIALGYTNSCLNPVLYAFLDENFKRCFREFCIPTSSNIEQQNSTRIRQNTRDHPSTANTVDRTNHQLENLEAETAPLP
Experimental: MuOPR expression was achieved using the muOPR transformed C43 (DE3) cell strain of E. coli in Terrific Broth medium as reported earlier with 0.4 mM isopropyl β-D-1-thiogalactopyranoside induction at 18 °C for 24 h. Bacterial cell cultures were harvested by centrifugation at 4000× g for 20 min. Periplasmic fraction from the harvested cells was removed by osmatic shock. Cells were resuspended in 7 mL of lysis buffer (20 mM Tris-HCl pH 8.0, 150 mM NaCl, 10% glycerol, 2 mM MgCl2, 10 μM E-64, 1 μM pepstatin-A, 10 μM leupeptin, 1 mM pefabloc SC, 2 mM β-Mercaptoethanol, 1 mg/mL lysozyme, 30 U/mL DNase) per gram of cell pellet and incubated on ice for 30 min with continuous stirring. […] The solubilized membrane sample was centrifuged at 100,000× g for 1 h at 4 °C and the supernatant was collected. Imidazole was added to the supernatant to a final concentration of 5 mM before starting purification using Ni-NTA resin in batch mode as reported. Eluted fractions with muOPR were pooled, concentrated and subjected to size exclusion chromatography (SEC) using HiLoad 16/600 Superdex 200 pg column (GE Healthcare Sciences, Berlin, Germany) equilibrated with 20 mM Tris pH 8, 150 mM NaCl, 0.1% Fos12, 10% Glycerol and 1 mM TCEP. SEC elution fractions were analyzed by SDS-PAGE and western blotting with Monoclonal Anti-polyHistidine-Peroxidase antibody (Sigma-Aldrich) for protein presence and purity before use.
The spectrum of the wells was then recorded from 190 to 260 nm using a Spectramax plus scanning spectrophotometer (Molecular Devices, San Jose, CA, USA) using SOFTMax PRO software (Molecular Devices, San Jose, CA, USA). The procedure described above was repeated an additional eleven times using compound dilutions of increasing concentration each time.
Data were analyzed in Excel. The raw spectra were processed by averaging the three runs of each condition and then subtracting the absorbance of the buffer alone at each volume. The triplicate data for each experimental condition were averaged. The compound + buffer data were subtracted from the muOPR + compound data at each volume to leave the spectrum of the muOPR under that experimental condition. […] Because the final calculations involve several subtractions, error bars […].

[7] = target: INSR 157–166 peptide (insulin receptor) (Homo sapiens, UniProt P06213); assay: biochemical
Experimental: as §1, §2
(§4) If the measured absorbance is different than the additive absorbance of each compound, then that indicates some sort of molecular interaction. The binding can be quantified by graphing the difference in absorbance against the concentration of the compound varied to provide a binding curve. The absorbance for the phosphate buffer is subtracted for each well before any calculations are done. […]

[8] = target: INSR 105–113 peptide (insulin receptor) (Homo sapiens, UniProt P06213); assay: biochemical
Experimental: as §1, §2, §3

[9] = target: B2AR 175–188 peptide (β-2-adrenergic receptor) (Homo sapiens, UniProt P07550); assay: biochemical
Experimental: as §1, §2, §3

[10] = target: B2AR 93–100 peptide (β-2-adrenergic receptor) (Homo sapiens, UniProt P07550); assay: biochemical
Experimental: as §1, §2, §3

[11] = target: HIST 105–115 peptide (histamine 1 receptor) (Homo sapiens, UniProt P35367); assay: biochemical
[12] = target: HIST 89–98 peptide (histamine 1 receptor) (Homo sapiens, UniProt P35367); assay: biochemical
[13] = target: HIST 166–172 peptide (histamine 1 receptor) (Homo sapiens, UniProt P35367); assay: biochemical
[14] = target: D1DR 89–100 peptide (dopamine receptor D1) (Homo sapiens, UniProt P21728); assay: biochemical
[15] = target: HIST 77–87 peptide (histamine 1 receptor) (Homo sapiens, UniProt P35367); assay: biochemical
[16] = target: B2AR 103–113 peptide (β-2-adrenergic receptor) (Homo sapiens, UniProt P07550); assay: biochemical
Experimental: as §1, §2, §4

[17] = target: HIST 177–183 peptide (histamine 1 receptor) (Homo sapiens, UniProt P35367); assay: biochemical
[18] = target: D1DR 175–188 peptide (dopamine receptor D1) (Homo sapiens, UniProt P21728); assay: biochemical
[19] = target: B2AR 97–106 peptide (β-2-adrenergic receptor) (Homo sapiens, UniProt P07550); assay: biochemical
Experimental: as §1, §2, §3

[20] = target: HIST 96–107 peptide (histamine 1 receptor) (Homo sapiens, UniProt P35367); assay: biochemical
[21] = target: Met-enkephalin (Homo sapiens); assay: UV spectroscopy; settings: modification not given

NCCc1c[nH]c2ccc(O)cc12 [5HT, 5-hydroxytryptamine]
Kd [1]: 100 µM
Kd [2]: 90 µM
Kd [3]: 350 µM
Kd [4]: 100 µM
Kd [5]: 100 µM

CC(=O)OCC[N+](C)(C)C [ACh, acetylcholine]
Kd [1]: > 1000 µM
Kd [2]: > 1000 µM
binding to the muOPR peptides (in words) (muOPR peptides; UV spectroscopy): no measurable binding
Kd [3]: > 1000 µM
Kd [6]: > 1000 µM
Kd ([6]; Kd @ 210 nm (μM), 210 nm): > 1000 µM
binding to intact muOPR (in words) [6]: No significant binding
Kd [4]: > 1000 µM
Kd [5]: > 1000 µM

O=C1O[C@H]([C@@H](O)CO)C(O)=C1O [ASC, ascorbic acid]
binding to the muOPR peptides (in words) (muOPR peptides; UV spectroscopy): did not bind
binding to intact muOPR (in words) [6]: No significant binding

NCCc1ccc(O)c(O)c1 [DOP, dopamine]
binding to the muOPR peptides (in words) (muOPR peptides): only displayed the low affinity binding

O=C(O)CN(CCN(CC(=O)O)CC(=O)O)CC(=O)O [EDTA, ethylenediaminetetraacetic acid]
Kd [7]: > 1000 µM
Kd [8]: > 1000 µM

OC[C@H]1OC(O)[C@H](O)[C@@H](O)[C@@H]1O (some centres unmarked) [GLUC, glucose]
Kd [1]: > 1000 µM
Kd [9]: > 1000 µM
Kd [10]: > 1000 µM
Kd [11]: > 1000 µM
Kd [12]: > 1000 µM
Kd [2]: > 1000 µM
Kd [13]: > 1000 µM
Kd [3]: > 1000 µM
Kd [14]: > 1000 µM
Kd [4]: > 1000 µM
Kd [5]: > 1000 µM
Kd [15]: > 1000 µM
Kd [16]: > 1000 µM
Kd [17]: > 1000 µM
Kd [18]: > 1000 µM
Kd [19]: > 1000 µM
Kd [20]: > 1000 µM

NCCc1c[nH]cn1 [Hist, histamine]
binding to the muOPR peptides (in words) (muOPR peptides): no measurable binding

CN1CC[C@]23c4c5ccc(O)c4O[C@H]2[C@@H](O)C=C[C@H]3[C@H]1C5 [Morph, morphine sulfate]
Kd [14]: 20 µM
Kd [18]: 10 µM

C=CCN1CC[C@]23c4c5ccc(O)c4O[C@H]2C(=O)CC[C@@]3(O)[C@H]1C5 [Nalox, naloxone]
Kd [7]: 200 µM
Kd [9]: 40 µM
Kd [10]: 5 µM
Kd [14]: 5 µM
Kd [16]: 3 µM
Kd [8]: 20 µM
Kd [18]: 20 µM
Kd [19]: 6 µM

Cc1cc2nc3c(=O)[nH]c(=O)nc-3n(C[C@H](O)[C@H](O)[C@H](O)CO)c2cc1C [RIBO, riboflavin]
Kd [1]: 100 µM
Kd [9]: 500 µM
Kd [10]: 400 µM
Kd [11]: 450 µM
Kd [12]: 400 µM
Kd [2]: > 1000 µM
Kd [3]: > 1000 µM
Kd [14]: 600 µM
Kd [4]: 50 µM
Kd [5]: > 1000 µM
Kd [15]: > 1000 µM
Kd [8]: 500 µM
Kd [18]: 300 µM
Kd [19]: 600 µM
Kd [20]: 500 µM

TLPFQSVNYL
Kd [21]: 90 µM

NLALADALATST
Kd [21]: 80 µM

KYRQGSIDCTLTFSHP
Kd [21]: 1 µM
